Assay results published in paper PMC11189555, “Aryl amino acetamides prevent Plasmodium falciparum ring development via targeting the lipid-transfer protein PfSTART1” (Nature Communications, 2024).
Read-outs that look alike come from different tables or passages of the source.

How the values were obtained:
[1] = test system: PopD-D7 M-833 resistant clone (PfSTART1 N309K); experiment: Growth inhibition assay (72 h, LDH activity); assay type: cell-based, Plasmodium falciparum; settings: for (av-uRBC) / (DMSO-uRBC) x100: PopD-D7
How it was run: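 Synchronised ring-stage 3D7-derived clones (0.3-0.6% parasitemia, 2% haematocrit) grown 72 h in compound serial dilutions, some with 0, 0.25 or 2.5 mM glucosamine. Growth read as LDH activity after freeze-thaw (Malstat/NBT, A650), normalised to DMSO and uninfected RBC; EC50 from variable-slope log(inhibitor) fit.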

in vitro = settings: human
[2] = test system: 3D7 P. falciparum parasites; experiment: Growth inhibition assay (72 h, LDH activity); assay type: cell-based, Plasmodium falciparum; settings: for EC50: Plasmodium falciparum
How it was run: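 Synchronised ring-stage P. falciparum (0.3-0.6% parasitemia, 2% haematocrit) grown 72 h in serial compound dilutions, sometimes with 0, 0.25 or 2.5 mM glucosamine. Growth read as LDH activity (Malstat/NBT, A650) after freeze-thaw, normalised to DMSO and uninfected RBC. EC50 by nonlinear regression.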

In the case of O=C(CNc1ccc(Cl)c(S(=O)(=O)N2CCOCC2)c1)Nc1ccc(F)c(Cl)c1 [compound 2, reference compound], the EC50 ([1]; Plasmodium falciparum, Supplementary Table 1, PopD-D7 (N309K), 72 h, read-out: EC50) is reported as greater than 20000 nM, the “resistance of the line compared with 3D7” value ([1]; PopD-D7 (N309K), Fig 4B) is reported as “highly resistant” and the “(av-uRBC) / (DMSO-uRBC) x100” value ([1]; conc. 3.04832 nM, Biological replicate 1 (2021-10-25)) is reported as 108.297. For the same compound, the “(av-uRBC) / (DMSO-uRBC) x100” value ([1]; conc. 3.04832 nM, Biological replicate 2 (2021-11-03)) was 110.746, the “(av-uRBC) / (DMSO-uRBC) x100” value ([1]; conc. 3.04832 nM, Biological replicate 3 (2021-11-11)) was 101.173 and the “(av-uRBC) / (DMSO-uRBC) x100” value ([1]; conc. 9.14495 nM, Biological replicate 1 (2021-10-25)) was 111.853. For the same compound, the “(av-uRBC) / (DMSO-uRBC) x100” value ([1]; conc. 9.14495 nM, Biological replicate 2 (2021-11-03)) was 111.153, the “(av-uRBC) / (DMSO-uRBC) x100” value ([1]; conc. 9.14495 nM, Biological replicate 3 (2021-11-11)) was 114.836 and the “(av-uRBC) / (DMSO-uRBC) x100” value ([1]; conc. 27.4348 nM, Biological replicate 1 (2021-10-25)) was 111.176. The “(av-uRBC) / (DMSO-uRBC) x100” value ([1]; conc. 27.4348 nM, Biological replicate 2 (2021-11-03)) was 111.76, the “(av-uRBC) / (DMSO-uRBC) x100” value ([1]; conc. 27.4348 nM, Biological replicate 3 (2021-11-11)) was 128.575 and the “(av-uRBC) / (DMSO-uRBC) x100” value ([1]; conc. 82.3045 nM, Biological replicate 1 (2021-10-25)) was 109.097. The “(av-uRBC) / (DMSO-uRBC) x100” value ([1]; conc. 82.3045 nM, Biological replicate 2 (2021-11-03)) was 114.254, the “(av-uRBC) / (DMSO-uRBC) x100” value ([1]; conc. 82.3045 nM, Biological replicate 3 (2021-11-11)) was 124.242 and the “(av-uRBC) / (DMSO-uRBC) x100” value ([1]; conc. 246.914 nM, Biological replicate 1 (2021-10-25)) was 110.536. The “(av-uRBC) / (DMSO-uRBC) x100” value ([1]; conc. 246.914 nM, Biological replicate 2 (2021-11-03)) was 113.933, the “(av-uRBC) / (DMSO-uRBC) x100” value ([1]; conc. 246.914 nM, Biological replicate 3 (2021-11-11)) was 129.518 and the “(av-uRBC) / (DMSO-uRBC) x100” value ([1]; conc. 740.741 nM, Biological replicate 1 (2021-10-25)) was 106.002. For the same compound, the “(av-uRBC) / (DMSO-uRBC) x100” value ([1]; conc. 740.741 nM, Biological replicate 2 (2021-11-03)) was 112.781, the “(av-uRBC) / (DMSO-uRBC) x100” value ([1]; conc. 740.741 nM, Biological replicate 3 (2021-11-11)) was 117.002 and the “(av-uRBC) / (DMSO-uRBC) x100” value ([1]; conc. 2222.22 nM, Biological replicate 1 (2021-10-25)) was 103.716. For the same compound, the “(av-uRBC) / (DMSO-uRBC) x100” value ([1]; conc. 2222.22 nM, Biological replicate 2 (2021-11-03)) was 111.361, the “(av-uRBC) / (DMSO-uRBC) x100” value ([1]; conc. 2222.22 nM, Biological replicate 3 (2021-11-11)) was 123.604 and the “(av-uRBC) / (DMSO-uRBC) x100” value ([1]; conc. 6666.67 nM, Biological replicate 1 (2021-10-25)) was 102.822. The “(av-uRBC) / (DMSO-uRBC) x100” value ([1]; conc. 6666.67 nM, Biological replicate 2 (2021-11-03)) was 107.742, the “(av-uRBC) / (DMSO-uRBC) x100” value ([1]; conc. 6666.67 nM, Biological replicate 3 (2021-11-11)) was 113.943 and the “(av-uRBC) / (DMSO-uRBC) x100” value ([1]; conc. 20000 nM, Biological replicate 1 (2021-10-25)) was 68.9276. The “(av-uRBC) / (DMSO-uRBC) x100” value ([1]; conc. 20000 nM, Biological replicate 2 (2021-11-03)) was 85.5559, the “(av-uRBC) / (DMSO-uRBC) x100” value ([1]; conc. 20000 nM, Biological replicate 3 (2021-11-11)) was 59.2149 and the “Fold change compared to 3D7” value ([1]; Supplementary Table 1, EC50 on PopD-D7 vs 3D7) was greater than 117 fold. The CC50 (in vitro) was greater than 40000 nM, the “(av-uRBC) / (DMSO-uRBC) x100” value ([2]; 3D7, conc. 3.04832 nM, Biological replicate 1 (2021-10-25)) was 101.583 and the “(av-uRBC) / (DMSO-uRBC) x100” value ([2]; 3D7, conc. 3.04832 nM, Biological replicate 2 (2021-11-03)) was 104.234. For the same compound, the “(av-uRBC) / (DMSO-uRBC) x100” value ([2]; 3D7, conc. 3.04832 nM, Biological replicate 3 (2021-11-11)) was 118.798, the “(av-uRBC) / (DMSO-uRBC) x100” value ([2]; 3D7, conc. 9.14495 nM, Biological replicate 1 (2021-10-25)) was 98.3522 and the “(av-uRBC) / (DMSO-uRBC) x100” value ([2]; 3D7, conc. 9.14495 nM, Biological replicate 2 (2021-11-03)) was 106.026. The “(av-uRBC) / (DMSO-uRBC) x100” value ([2]; 3D7, conc. 9.14495 nM, Biological replicate 3 (2021-11-11)) was 112.58, the “(av-uRBC) / (DMSO-uRBC) x100” value ([2]; 3D7, conc. 27.4348 nM, Biological replicate 1 (2021-10-25)) was 92.7855 and the “(av-uRBC) / (DMSO-uRBC) x100” value ([2]; 3D7, conc. 27.4348 nM, Biological replicate 2 (2021-11-03)) was 105.906. The “(av-uRBC) / (DMSO-uRBC) x100” value ([2]; 3D7, conc. 27.4348 nM, Biological replicate 3 (2021-11-11)) was 106.329, the “(av-uRBC) / (DMSO-uRBC) x100” value ([2]; 3D7, conc. 82.3045 nM, Biological replicate 1 (2021-10-25)) was 76.9881 and the “(av-uRBC) / (DMSO-uRBC) x100” value ([2]; 3D7, conc. 82.3045 nM, Biological replicate 2 (2021-11-03)) was 101.625. For the same compound, the “(av-uRBC) / (DMSO-uRBC) x100” value ([2]; 3D7, conc. 82.3045 nM, Biological replicate 3 (2021-11-11)) was 81.2348, the “(av-uRBC) / (DMSO-uRBC) x100” value ([2]; 3D7, conc. 246.914 nM, Biological replicate 1 (2021-10-25)) was 38.3866 and the “(av-uRBC) / (DMSO-uRBC) x100” value ([2]; 3D7, conc. 246.914 nM, Biological replicate 2 (2021-11-03)) was 48.8275. The “(av-uRBC) / (DMSO-uRBC) x100” value ([2]; 3D7, conc. 246.914 nM, Biological replicate 3 (2021-11-11)) was 35.6638, the “(av-uRBC) / (DMSO-uRBC) x100” value ([2]; 3D7, conc. 740.741 nM, Biological replicate 1 (2021-10-25)) was 12.6522 and the “(av-uRBC) / (DMSO-uRBC) x100” value ([2]; 3D7, conc. 740.741 nM, Biological replicate 2 (2021-11-03)) was 13.3573. The “(av-uRBC) / (DMSO-uRBC) x100” value ([2]; 3D7, conc. 740.741 nM, Biological replicate 3 (2021-11-11)) was 9.565, the “(av-uRBC) / (DMSO-uRBC) x100” value ([2]; 3D7, conc. 2222.22 nM, Biological replicate 1 (2021-10-25)) was 9.471 and the “(av-uRBC) / (DMSO-uRBC) x100” value ([2]; 3D7, conc. 2222.22 nM, Biological replicate 2 (2021-11-03)) was 10.1641. For the same compound, the “(av-uRBC) / (DMSO-uRBC) x100” value ([2]; 3D7, conc. 2222.22 nM, Biological replicate 3 (2021-11-11)) was 7.82, the “(av-uRBC) / (DMSO-uRBC) x100” value ([2]; 3D7, conc. 6666.67 nM, Biological replicate 1 (2021-10-25)) was 8.762 and the “(av-uRBC) / (DMSO-uRBC) x100” value ([2]; 3D7, conc. 6666.67 nM, Biological replicate 2 (2021-11-03)) was 10.3401. For the same compound, the “(av-uRBC) / (DMSO-uRBC) x100” value ([2]; 3D7, conc. 6666.67 nM, Biological replicate 3 (2021-11-11)) was 6.881, the “(av-uRBC) / (DMSO-uRBC) x100” value ([2]; 3D7, conc. 20000 nM, Biological replicate 1 (2021-10-25)) was 8.397 and the “(av-uRBC) / (DMSO-uRBC) x100” value ([2]; 3D7, conc. 20000 nM, Biological replicate 2 (2021-11-03)) was 8.683. For the same compound, the “(av-uRBC) / (DMSO-uRBC) x100” value ([2]; 3D7, conc. 20000 nM, Biological replicate 3 (2021-11-11)) was 3.998, the EC50 ([2]; 3D7, 72 h, Supplementary Table 1, 3D7, 72 h, read-out: EC50) was 171 nM and the EC50 ([2]; 3D7, Fig 4A, 3D7 parasites, read-out: Pf 3D7 EC50 (SD)) was 140 nM.
